By IC50 is commonly meant the point on the concentration scale where inhibition reaches its midpoint.

The text below walks through data of PubChem BioAssay AID1083 (University of Pittsburgh Molecular Library Screening Center, 2008).

“And” between values parts separate entries of the source, which are not always exact repeats. Equal entries are not always repeated. The source made the active and inactive calls. The rule behind the calls is not given here.

This assay deals with Serine/threonine-protein kinase PLK1 (Homo sapiens) (UniProt P53350). The experiment in a line: PLK1 polo-box domain peptide-binding inhibitors, SAR follow-up, biochemical, fluorescence polarization, purchased analogs, concentration response (AID 1083). Particulars: Plk1 PBD peptide binding.
Sequence of Serine/threonine-protein kinase PLK1 (Homo sapiens) (P53350 whole entry, looked up, the tested form may be a part): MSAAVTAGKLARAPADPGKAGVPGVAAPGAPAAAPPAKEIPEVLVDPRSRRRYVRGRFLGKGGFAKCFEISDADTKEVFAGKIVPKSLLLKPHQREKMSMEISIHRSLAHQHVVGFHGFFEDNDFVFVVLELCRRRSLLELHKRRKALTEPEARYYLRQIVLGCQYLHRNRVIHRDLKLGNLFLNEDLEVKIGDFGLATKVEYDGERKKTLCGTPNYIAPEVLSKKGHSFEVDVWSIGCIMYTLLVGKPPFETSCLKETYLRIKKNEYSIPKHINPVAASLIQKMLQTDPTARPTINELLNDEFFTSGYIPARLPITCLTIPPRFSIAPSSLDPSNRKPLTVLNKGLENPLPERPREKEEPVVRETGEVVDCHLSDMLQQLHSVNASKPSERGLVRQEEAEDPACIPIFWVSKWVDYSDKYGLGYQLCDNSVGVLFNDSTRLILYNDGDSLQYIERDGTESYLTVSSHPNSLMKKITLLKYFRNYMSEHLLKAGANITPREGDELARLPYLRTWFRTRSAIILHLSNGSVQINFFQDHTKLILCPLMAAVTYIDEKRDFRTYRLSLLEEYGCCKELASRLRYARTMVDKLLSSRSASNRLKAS

As for `CCCCCC(=O)N(CN1C(=O)c2ccccc2C1=O)c1ccc(OCc2ccccc2)cc1`, the IC50 is > 50 µM (inactive).

On to `CCn1c(N/C(O)=C/C(O)(C(F)(F)F)C(F)(F)F)nc2ccccc21`, for which the IC50 is > 50 µM (inactive). For `CCOC(=O)N1CCN(c2cc3nccnc3cc2F)CC1`, the IC50 was > 50 µM (inactive).

As to `COc1ccc(N(/N=C2\Sc3ccccc3C2=O)C(C)=O)cc1`, the half-maximal inhibitory concentration (IC50) is 15.2 µM.

Take `CCCCCC(=O)N(CN1C(=O)c2ccccc2C1=O)c1ccccc1OC`: the IC50 is > 50 µM (inactive). Then `CCOC(=O)c1ccc(NC(=O)C2CCC(C)CC2)cc1` (centres undefined), with > 50 µM (inactive). Regarding `CC(=O)N(CN1C(=O)c2ccccc2C1=O)c1cccc(F)c1`, the IC50 was > 50 µM (inactive). The value for `CCOc1cc(-c2nnc3[nH]c(=O)n(C)c(=O)c3n2)ccc1OC(C)C` was 28.9 µM. The value for `CCCCCC(=O)N(CN1C(=O)c2ccccc2C1=O)c1cccc(C(=O)O)c1` was > 50 µM (inactive). For the compound `CCCOC(=O)c1ccc(NC(=O)c2ccc(OC)c([N+](=O)[O-])c2)cc1`, the IC50 is > 50 µM (inactive). Then `CCCCCOC(=O)c1ccc(NC(=O)c2ccc([N+](=O)[O-])cc2)cc1`, with > 50 µM (inactive).

In the case of `CCCCCCC(=O)N(CN1C(=O)c2ccccc2C1=O)c1ccccc1`, the IC50 is > 50 µM (inactive).

`Cn1nc(-c2ccc([N+](=O)[O-])cc2)nc2c(=O)n(C)c(=O)nc1-2`: the IC50 was 0.375 µM. Turning to `CCCC(=O)c1c(O)[nH]c(=O)[nH]c1=O`, the IC50 is > 50 µM (inactive). Turning to `Cn1c(=O)c2nc(-c3ccccc3)c(-c3ccccc3)nc2n(C)c1=O`, the IC50 was > 50 µM (inactive).

In the case of `COc1ccc(N(CN2C(=O)c3cc(Cl)c(Cl)cc3C2=O)C(C)=O)cc1`, the IC50 was > 50 µM (inactive). Turning to `COc1ccccc1N(/C=C1\Sc2ccccc2C1=O)C(C)=O`, the IC50 is > 50 µM (inactive). Take `CCOC(=O)c1ccc(NC(=O)C2CC(=O)NC(=NC)S2)cc1` (centres undefined): the IC50 is > 50 µM (inactive). The value for `CCOc1ccc(-c2nc3c(=O)n(C)c(=O)nc-3n(C)n2)cc1OC` was 0.022 µM. Regarding `CN(C)c1ccc(-c2nnc3c(n2)c(=O)n(C)c(=O)n3C)cc1`, the IC50 is > 50 µM (inactive). Consider `COc1ccccc1N(/N=C1\Sc2ccccc2C1=O)C(C)=O`, for which the IC50 is 13.3 µM. Then `Cn1c(=O)[nH]c2nnc(-c3ccc4c(c3)OCO4)nc2c1=O`, with > 50 µM (inactive) and 4.91 µM; and `O=C1NC(=O)C(=Cc2c3ccccc3cc3ccccc23)C(=O)N1`, with > 50 µM (inactive); and `Cc1ccc(C(=O)CN2C=CC(=C(O)NCc3ccccc3)C=C2)cc1`, with > 50 µM (inactive). Then `CC(=O)N(CN1C(=O)c2ccccc2C1=O)c1ccc(C)cc1`, with > 50 µM (inactive).

For `COc1ccc(-c2nnc3[nH]c(=O)n(C)c(=O)c3n2)cc1`, the IC50 was > 50 µM (inactive). Consider `CC(=O)N(CN1C(=O)c2ccccc2C1=O)c1ccc(Cl)c(Cl)c1`, for which the IC50 was > 50 µM (inactive). Then `CC(=O)N(CN1C(=O)c2ccccc2C1=O)c1ccccc1Cl`, with > 50 µM (inactive); and `COc1ccccc1N(CN1C(=O)c2ccccc2C1=O)C(C)=O`, with > 50 µM (inactive); and `CC(=O)Oc1ccccc1N(/C=C1\Sc2ccccc2C1=O)C(C)=O`, with > 50 µM (inactive). In the case of `Cn1c(=O)[nH]c2nnc(-c3ccc([N+](=O)[O-])cc3)nc2c1=O`, the IC50 is > 50 µM (inactive).

On to `CCOC(=O)c1ccc(NC(=O)C2Cc3ccccc3C(=O)O2)cc1` (centres undefined), for which the IC50 is > 50 µM (inactive). The value for `CCOC(=O)c1ccc(NC(=O)C2CCCCC2C(=O)O)cc1` (centres undefined) was > 50 µM (inactive).

Take `CCCCOC(=O)c1ccc(N=Cc2c(O)[nH]c(=O)[nH]c2=O)cc1`: the IC50 is > 50 µM (inactive). The value for `CC(=O)N(/N=C1\Sc2ccccc2C1=O)c1cccc(Br)c1` was 20.9 µM. Then `CCn1nc(-c2ccc(C(=O)OC)cc2)nc2c(=O)n(C)c(=O)nc1-2`, with 0.488 µM; and `CCOC(=O)c1ccc(N=Cc2c(O)n(C)c(=O)n(C)c2=O)cc1`, with > 50 µM (inactive). The value for `Cn1c(=O)[nH]c(=O)c2nc(-c3ccccc3)c(-c3ccccc3)nc21` was > 50 µM (inactive); that for `CCOC(=O)c1ccc(NC(=O)C2C3CCC(C3)C2C(=O)O)cc1` (centres undefined) was > 50 µM (inactive).
